Tests used:
[1] = tested on: mouse wound model (6 mm punch biopsy wound); assay: Wound size analysis from wound images by machine-learning algorithm; assay type: in vivo; conditions: fluoxetine-treated wounds, similar trend to control
Excerpt: (§1) FIG. 6 illustrates testing of the efficacy of the bioelectronic bandage in vivo on a mouse wound model. We created a 6 mm punch biopsy wound held open by a silicone splint ring to minimize wound contraction (FIG. 6A). Wound contraction is a major wound healing process in mice but not humans. It confounds the histological analysis of the wound reponse to therapy, particularly re-epithelialization [12b, 13]. A gas-permeable, transparent adhesive dressing, Tegaderm™, fixes the bioelectronic bandage to the mouse (FIG. 6A, right) so that the mouse can move around its cage without interference (FIG. 6B). This is possible because the lightweight bandage (2.5 g) represents less than 10% of the mouse weight. For this test, we programmed the bandage to deliver Flx^+ for three days for six hours per day (FIG. 6C).
(§2) We utilized a machine-learning algorithm reported to analyze images of wounds and evaluate their condition and healing progression (FIG. 6D). The algorithm automatically marked the wound area and analyzed the wound size (FIG. 6E). […] To further investigate healing, the wounds were fully excised at the end of the experiment, fixed, and stained with hematoxylin and eosin (H&E) to assess wound re-epithelialization (FIG. 6G-H). […] This variability allowed us to qualitatively correlate the dose of Flx^+ and wound healing as measured by the percentage of re-epithelization (FIG. 6J, right). […]

[2] = tested on: M1 and M2 macrophages in the wound; assay: Macrophage analysis of the wound (immunohistochemistry, M1 iNOS / M2 CD206 / F4/80); assay type: in vivo, mouse
Excerpt: All cells (stained by DAPI, shown in blue), M1 (stained by iNOS, shown in green), M2 (stained by CD206, shown in red), and overall macrophages (stained by F4/80, shown in gray) were imaged and presented, FIG. 7b is an overlay of M1 and M2 staining, showing the distribution and ratio of macrophage subtypes, FIG. 7c is a box plot showing statistics of the M1/M2 ratio, which was 1.80+/−0.62 in the control group and 1.31+/−0.46 for the fluoxetine-treated group. […] The blue dot represents the M1/M2 ratio from the control group, and the red dot represents the fluoxetine-treated group. The dashed lines indicate the projected wound age, while the solid line represents the trend plotted from the data in the reference..
After analyzing the promising re-epithelization data, we delved deeper into another crucial indicator of wound healing: the M1/M2 macrophage ratio (FIG. 7). Macrophages play a pivotal role in the immune response and are crucially involved in the healing and regeneration of wounds. Although macrophages are phenotypically heterogeneous over a continuum, a simplified classification based on their polarized functions during the different stages of wound repair defines the M1 subtype that carries out pro-inflammatory activities and the M2 subtype that is anti-inflammatory and promotes tissue repair. […] Meanwhile, the number of M2-like macrophages increased in the center of the fluoxetine-treated wound, as depicted in FIG. 7A.

[3] = tested on: mouse wound model (6 mm punch biopsy wound held open by a silicone splint ring); assay: In vivo mouse wound model: re-epithelialization (H&E) after Flx+ delivery from wearable bioelectronic bandage
Excerpt: as §1, §2

CNCCC(Oc1ccc(C(F)(F)F)cc1)c1ccccc1 (stereo not shown) [fluoxetine]
wound size trend over time [1]: slight increase in size at day 1, followed by a decrease on subsequent days
decrease in M1/M2 ratio compared to control ([2]; day 3, n=13 mice, P<0.05): 27.2%
M1/M2 ratio ([2]; fluoxetine-treated group, day 3, n=13 mice): 1.31+/−0.46
number of M2-like macrophages in the center of the wound ([2]; fluoxetine-treated wound, day 3): increased
M1 macrophage infiltration of the center of the wound ([2]; three days after injury, control wound significantly infiltrated): no change
increase in re-epithelialization compared to control ([3]; Flx+ delivered from the bioelectronic bandage, three days, six hours per day, H&E of excised wounds, P<0.05): 39.9%
reepithelization in mouse 2 (>300 nMol per day Flx+) versus mouse 15 (10× smaller dose) ([3]; qualitative dose comparison, bioelectronic bandage): much faster

— patent publication US20240366930A1, “WEARABLE BIOELECTRONICS FOR PROGRAMMABLE DELIVERY OF THERAPY” (The Regents of the University of California, priority 2023, published 2024)
